Results as given in article PMC9151520 (Archives of Toxicology, 2022).
“And” between values parts separate entries of the source, which are not always exact repeats. Equal entries are not always repeated. Where two headings read alike, the source gives them in different places.

Columns and labels:
[1] = test system: p53 signaling (p53RE-bla HCT-116 cells); assay: cells; format: cell-based; details: for EC50 / Emax: Homo sapiens
[2] = test system: p53 signaling (p53RE-bla HCT-116 cells); assay: cells; format: cell-based
[3] = test system: p53 signaling (p53RE-bla HCT-116 cells); assay: cells; format: cell-based; parameters: efficacy: unit not given here; details: for EC50 / Emax: Homo sapiens; for EC50: HCT-116; for Emax: HCT-116, read-out: efficacy
[4] = test system: p53 signaling (p53RE-bla HCT-116 cells)
[5] = test system: p53RE-bla HCT-116 cells
[6] = rat
[7] = test system: p53 signaling (p53RE-bla HCT-116 cells); assay: cells; details: Homo sapiens
[8] = in vitro; details: male, Sprague Dawley, rat, microsomes, pH 7.4
[9] = test system: p53 signaling (p53RE-bla HCT-116 cells); remark: listed apart in the source
[10] = test system: p53 signaling (p53RE-bla HCT-116 cells); assay: cells; details: Homo sapiens; remark: listed apart in the source
[11] = HCT-116, read-out: EC50, p53 activation, cherry pick confirmation
[12] = HCT-116, read-out: Efficacy, p53 activation, cherry pick confirmation
[13] = HCT-116, read-out: p53 activation EC50, cherry pick confirmation
[14] = HCT-116, read-out: p53 activation EC50, primary screening
[15] = HCT-116, read-out: p53 activation efficacy, cherry pick confirmation
[16] = read-out: p53 activation EC50, RLM
[17] = HCT-116, read-out: p53 activation EC50, HLM

## Cc1cc(=O)oc2cc(O)ccc12 [4-Methylumbelliferone]
[1]
  EC50, p53 activation, primary screening: inactive
  Efficacy, p53 activation, primary screening: inactive
[1]; [11]
  EC50: 18.2 µM
[1]; [12]
  Emax: 30%
[2]
  EC50: Inactive
[3]
  EC50: 24.2 µM
  Emax: 114%
[4]
  EC50, p53 activation, cherry pick confirmation: inactive
  Efficacy, p53 activation, cherry pick confirmation: inactive
[5]
  EC50, viability, cherry pick confirmation: inactive
  EC50, viability, primary screening: inactive
  Efficacy, viability, cherry pick confirmation: inactive
  Efficacy, viability, primary screening: inactive
[6]
  Depletion after 16 h of incubation with cells: 46.53 ± 5.89%
[7]; HCT-116
  EC50: 25.2 µM
[7]; [11]
  EC50: 25.9 µM
[7]; [12]
  Emax: 89.9%
[7]; HCT-116, read-out: efficacy
  Emax: 99.5%
[8]
  half-life: 19.1 min

## COc1c2ccoc2cc2oc(=O)ccc12 [5-Methoxypsoralen]
[1]
  p53 activation EC50, cherry pick confirmation: inactive
  p53 activation EC50, primary screening: inactive
  p53 activation efficacy, cherry pick confirmation: inactive
  p53 activation efficacy, primary screening: inactive
[2]
  EC50: Inactive
[3]
  EC50: 13.2 µM
  Emax: 75%
[4]
  p53 activation EC50, cherry pick confirmation: inactive
  p53 activation EC50, primary screening: inactive
  p53 activation efficacy, cherry pick confirmation: inactive
  p53 activation efficacy, primary screening: inactive
[5]
  Viability EC50, cherry pick confirmation: inactive
  Viability EC50, primary screening: inactive
  Viability efficacy, cherry pick confirmation: inactive
  Viability efficacy, primary screening: inactive
[6]
  Depletion after 16 h of incubation with cells: 45.7 ± 3.67%
[7]; HCT-116
  EC50: 16.4 µM
[7]; HCT-116, read-out: efficacy
  Emax: 72.3%
[7]; [13]
  EC50: 9.45 µM
[7]; [14]
  EC50: 20.9 µM
[7]; [15]
  Emax: 62.5%
[7]; HCT-116, read-out: p53 activation efficacy, primary screening
  Emax: 81.3%
[8]
  half-life: 21.1 ± 3.72 min

## Cc1cccc2c1cc1ccc3cccc4ccc2c1c34 [7-Methylbenzo(a)pyrene]
[1]
  p53 activation Efficacy, No MS: 64.7403%
[1]; HCT-116, read-out: p53 activation Efficacy, No MS
  Emax: 59.2%
[2]; Homo sapiens, HCT-116, 0.5 h
  EC50: 32.9 µM
[3]
  EC50: 27.5 µM
[5]
  Viability EC50, HLM: inactive
  Viability EC50, No MS: inactive
  Viability EC50, RLM: inactive
  Viability Efficacy, HLM: inactive
  Viability Efficacy, No MS: inactive
  Viability Efficacy, RLM: inactive
[6]
  Depletion after 16 h of incubation with cells: 52.01 ± 27.41%
[7]; HCT-116
  EC50: 34.3 µM

## COP(=S)(OC)SCn1nnc2ccccc2c1=O [Azinphos-methyl]
[1]
  p53 activation EC50: inactive
  p53 activation efficacy: inactive
[2]
  efficacy: 6.6 ± 0.91 ( 57.05 ± 12.27 ) %
[2]; Homo sapiens, HCT-116, 0.5 h
  EC50: 6.6 µM
[3]
  efficacy: 7.29 ± 2.15 ( 104.64 ± 29.38 ) %
  EC50: 7.29 µM
[9]
  p53 activation efficacy: 77.2775 and 58.65
[4]
  p53 activation EC50: inactive
[5]
  Viability EC50: inactive
  Viability efficacy: inactive
[6]
  Depletion after 16 h of incubation with cells: 94.04 ± 0.16%
[7]; HCT-116
  EC50: 11.6 µM
[10]; HCT-116, read-out: p53 activation EC50
  EC50: 14900 nM

## OCCN(CCO)c1nc(N2CCCCC2)c2nc(N(CCO)CCO)nc(N3CCCCC3)c2n1 [Dipyridamole, reference compound]
[2]; Homo sapiens, HCT-116, 0.5 h
  EC50: 4.36 µM
[2]; Homo sapiens, HCT-116, read-out: efficacy
  Emax: 174%
[3]
  EC50: 5.28 µM
[8]
  half-life: 7.32 ± 0.59 min

## CCOP(=O)(NC(C)C)Oc1ccc(SC)c(C)c1 (stereo not drawn) [Fenamiphos]
[1]
  p53 activation EC50, No MS: inactive
  p53 activation Efficacy, No MS: inactive
[2]
  efficacy: 0.37 ± 0.15 ( 33.54 ± 3.04 ) %
[2]; Homo sapiens, HCT-116, 0.5 h
  EC50: 0.37 µM
[3]
  efficacy: 1.34 ± 0.33 ( 75.12 ± 11.54 ) %
  EC50: 1.34 µM
[9]; [16]
  EC50: 958 nM
[4]
  p53 activation EC50, HLM: inactive
[5]
  Viability EC50, HLM: inactive
  Viability EC50, No MS: inactive
  Viability EC50, RLM: inactive
  Viability Efficacy, HLM: inactive
  Viability Efficacy, No MS: inactive
  Viability Efficacy, RLM: inactive
[6]
  Depletion after 16 h of incubation with cells: 99.41 ± 0.07%
[7]; HCT-116
  EC50: 1.5 µM
[7]; HCT-116, read-out: p53 activation EC50, RLM
  EC50: 1.55 µM
[10]; [17]
  EC50: 1490 nM

## CCOP(=O)(SC(C)CC)N1CCSC1=O (stereo not drawn) [Fosthiazate]
[8]
  half-life: 15.2 ± 1.93 min

## COP(=S)(OC)Oc1cc(Cl)c(I)cc1Cl [Iodenphos]
[1]
  p53 activation EC50: inactive
  p53 activation efficacy: inactive
[2]; Homo sapiens, HCT-116, 0.5 h
  EC50: 24.2 µM
[3]
  EC50: 37 µM
[9]
  p53 activation efficacy: 81.587 and 107.715
[9]; read-out: p53 activation EC50
  EC50: 26600 nM
[4]
  p53 activation EC50: inactive
[5]
  Viability EC50: inactive
  Viability efficacy: inactive
[6]
  Depletion after 16 h of incubation with cells: 99.99 ± 0%
[7]; HCT-116
  EC50: 32.2 µM
[7]; HCT-116, read-out: efficacy
  Emax: 84.9%
[10]; HCT-116, read-out: p53 activation efficacy
  Emax: 54.2%

## c1ccc2c(c1)[nH]c1cnccc12 [Norharman]
[1]
  p53 activation EC50, cherry pick confirmation: inactive
  p53 activation efficacy, cherry pick confirmation: inactive
[1]; [14]
  EC50: 41.4 µM
[2]
  EC50: Inactive
[3]
  EC50: 20 µM
  Emax: 76.4%
[4]
  p53 activation EC50, cherry pick confirmation: inactive
  p53 activation EC50, primary screening: inactive
  p53 activation efficacy, cherry pick confirmation: inactive
  p53 activation efficacy, primary screening: inactive
[5]
  Viability EC50, cherry pick confirmation: inactive
  Viability EC50, primary screening: inactive
  Viability efficacy, cherry pick confirmation: inactive
  Viability efficacy, primary screening: inactive
[6]
  Depletion after 16 h of incubation with cells: 85.03 ± 0.42%
[7]; HCT-116
  EC50: 28.1 µM
[7]; HCT-116, read-out: efficacy
  Emax: 73.8%
[7]; [13]
  EC50: 29.6 µM
[7]; [14]
  EC50: 32.6 µM
[7]; [15]
  Emax: 71%

## CCOP(=S)(OCC)Oc1ccc([N+](=O)[O-])cc1 [Parathion]
[1]
  p53 activation EC50, No MS: inactive
  p53 activation Efficacy, No MS: inactive
[2]
  EC50: Inactive
[3]
  EC50: 1.45 µM
  Emax: 35.6%
[4]
  p53 activation EC50, HLM: inactive
[5]
  Viability EC50, HLM: inactive
  Viability EC50, No MS: inactive
  Viability EC50, RLM: inactive
  Viability Efficacy, HLM: inactive
  Viability Efficacy, No MS: inactive
  Viability Efficacy, RLM: inactive
[6]
  Depletion after 16 h of incubation with cells: 98.86 ± 0.34%
[7]; HCT-116
  EC50: 1.11 µM
[7]; HCT-116, read-out: efficacy
  Emax: 36.3%
[10]; [17]
  EC50: 1200 nM

## CCOP(=S)(OCC)SCSCC [Phorate]
[8]
  half-life: 104 ± 22.4 min

## Cc1nc(N(C)C)nc(OC(=O)N(C)C)c1C [Pirimicarb]
[8]
  half-life: 11.7 ± 0.52 min

## CCOP(=S)(OCC)Oc1cc(C)nc(N(CC)CC)n1 [Pirimiphos-ethyl]
[1]
  p53 activation EC50, No MS: inactive
  p53 activation Efficacy, No MS: inactive
[9]
  EC50: 2070 nM
[9]; [16]
  EC50: 1910 nM and 3440 nM
[4]
  p53 activation EC50, HLM: inactive
[4]; read-out: p53 activation EC50, HLM
  EC50: 3.88 µM
[5]
  Viability EC50, HLM: inactive
  Viability EC50, No MS: inactive
  Viability EC50, RLM: inactive
  Viability Efficacy, HLM: inactive
  Viability Efficacy, No MS: inactive
  Viability Efficacy, RLM: inactive
[6]
  Depletion after 16 h of incubation with cells: 95.16 ± 0.46%

## Cc1cc(=O)n(-c2ccccc2)n1C [antipyrine, reference compound]
[8]
  half-life: > 120 min

## O=C1CC2(CCCC2)CC(=O)N1CCCCN1CCN(c2ncccn2)CC1 [buspirone, reference compound]
[8]
  half-life: 7.2 ± 2.3 min
